Experimental data taken from US12227500B2, “Substituted pyrrolo[2,3-b]pyridines for suppressing toxic endoplasmic reticulum stress” (THE TRUSTEES OF COLUMBIA UNIVERSITY IN THE CITY OF NEW YORK, priority 2018, dated 2025).
Like-named read-outs stand apart in the source and are kept apart here.

Legend:
Assay in all cases: Radiolabeled ATP kinase assay, panel of 60 kinases (Table S5)
Type in all cases: biochemical
[1] = target: T1, panel of 60 human kinases (Homo sapiens, UniProt P11802); settings: 0.1 μM, 10 μM ATP, read-out: % Enzyme Activity (relative to DSMO controls)
T1 construct: purchased Reaction Biology Corp
T1 sequence (P11802 whole entry): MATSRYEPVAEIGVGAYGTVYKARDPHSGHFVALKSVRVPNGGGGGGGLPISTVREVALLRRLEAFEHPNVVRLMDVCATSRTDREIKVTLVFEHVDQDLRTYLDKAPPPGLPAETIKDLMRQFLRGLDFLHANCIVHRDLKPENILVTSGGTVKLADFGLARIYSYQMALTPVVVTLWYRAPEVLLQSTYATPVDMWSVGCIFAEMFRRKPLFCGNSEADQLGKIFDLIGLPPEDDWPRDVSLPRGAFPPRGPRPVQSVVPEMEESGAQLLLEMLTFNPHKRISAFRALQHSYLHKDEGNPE
In short: (§1)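 Cell-free radiolabeled-ATP kinase assays across a panel of 60 kinases; each compound tested at 0.1 μM and 0.5 μM for inhibition.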

[2] = target: T2, panel of 60 human kinases (Homo sapiens, UniProt P22607); settings: FGFR3; 0.1 μM; 10 μM ATP; read-out: % Enzyme Activity (relative to DSMO controls)
T2 construct: purchased Reaction Biology Corp
T2 sequence (P22607 23-806): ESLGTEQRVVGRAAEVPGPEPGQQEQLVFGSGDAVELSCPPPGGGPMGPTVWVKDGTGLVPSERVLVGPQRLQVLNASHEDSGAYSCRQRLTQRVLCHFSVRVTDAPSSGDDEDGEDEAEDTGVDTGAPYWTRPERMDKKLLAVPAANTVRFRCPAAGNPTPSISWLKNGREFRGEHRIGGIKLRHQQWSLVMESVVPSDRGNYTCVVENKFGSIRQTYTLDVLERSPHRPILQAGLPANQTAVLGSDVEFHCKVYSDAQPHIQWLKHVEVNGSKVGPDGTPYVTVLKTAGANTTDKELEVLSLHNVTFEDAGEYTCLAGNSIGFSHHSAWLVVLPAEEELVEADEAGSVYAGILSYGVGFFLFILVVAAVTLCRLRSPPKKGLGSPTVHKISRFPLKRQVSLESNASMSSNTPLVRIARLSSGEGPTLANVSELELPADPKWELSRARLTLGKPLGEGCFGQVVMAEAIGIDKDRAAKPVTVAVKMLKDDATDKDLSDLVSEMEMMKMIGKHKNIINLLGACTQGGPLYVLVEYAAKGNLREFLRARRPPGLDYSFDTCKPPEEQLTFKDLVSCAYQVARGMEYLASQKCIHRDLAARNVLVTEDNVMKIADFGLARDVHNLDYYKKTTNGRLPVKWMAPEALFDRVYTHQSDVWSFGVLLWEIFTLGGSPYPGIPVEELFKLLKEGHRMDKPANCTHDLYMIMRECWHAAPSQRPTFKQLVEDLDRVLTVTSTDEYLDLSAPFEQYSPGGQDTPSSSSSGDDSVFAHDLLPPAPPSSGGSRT
In short: as §1

[3] = target: T3, panel of 60 human kinases (Homo sapiens, UniProt O94806); settings: PKCnu/PRKD3; 0.1 μM; 10 μM ATP; read-out: % Enzyme Activity (relative to DSMO controls)
T3 construct: purchased Reaction Biology Corp
T3 sequence (O94806 1-890): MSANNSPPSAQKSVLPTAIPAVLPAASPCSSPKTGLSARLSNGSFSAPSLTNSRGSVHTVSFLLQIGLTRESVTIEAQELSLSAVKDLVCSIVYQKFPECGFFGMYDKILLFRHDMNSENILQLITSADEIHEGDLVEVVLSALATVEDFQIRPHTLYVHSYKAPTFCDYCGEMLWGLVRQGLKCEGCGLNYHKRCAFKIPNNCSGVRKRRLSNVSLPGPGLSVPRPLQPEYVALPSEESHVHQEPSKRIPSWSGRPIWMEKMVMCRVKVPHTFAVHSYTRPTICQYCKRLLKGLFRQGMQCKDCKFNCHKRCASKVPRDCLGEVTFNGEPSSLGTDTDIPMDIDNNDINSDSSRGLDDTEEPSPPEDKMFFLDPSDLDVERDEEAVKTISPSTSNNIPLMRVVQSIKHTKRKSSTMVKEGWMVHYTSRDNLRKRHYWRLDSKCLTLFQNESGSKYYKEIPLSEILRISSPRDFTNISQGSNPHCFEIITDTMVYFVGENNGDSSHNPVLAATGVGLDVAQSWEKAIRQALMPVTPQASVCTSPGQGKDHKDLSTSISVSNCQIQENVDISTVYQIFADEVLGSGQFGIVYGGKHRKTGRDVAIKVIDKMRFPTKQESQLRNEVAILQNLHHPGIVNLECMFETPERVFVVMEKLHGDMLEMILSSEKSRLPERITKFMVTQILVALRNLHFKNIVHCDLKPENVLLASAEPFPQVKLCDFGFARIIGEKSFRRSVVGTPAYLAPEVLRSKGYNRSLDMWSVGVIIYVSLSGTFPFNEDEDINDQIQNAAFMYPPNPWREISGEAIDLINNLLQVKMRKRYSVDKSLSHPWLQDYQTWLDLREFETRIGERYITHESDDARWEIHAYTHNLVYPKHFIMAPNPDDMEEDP
In short: as §1

[4] = target: T4, panel of 60 human kinases (Homo sapiens, UniProt P50750); settings: 0.1 μM, 10 μM ATP, read-out: % Enzyme Activity (relative to DSMO controls)
T4 construct: purchased Reaction Biology Corp
T4 sequence (P50750 whole entry): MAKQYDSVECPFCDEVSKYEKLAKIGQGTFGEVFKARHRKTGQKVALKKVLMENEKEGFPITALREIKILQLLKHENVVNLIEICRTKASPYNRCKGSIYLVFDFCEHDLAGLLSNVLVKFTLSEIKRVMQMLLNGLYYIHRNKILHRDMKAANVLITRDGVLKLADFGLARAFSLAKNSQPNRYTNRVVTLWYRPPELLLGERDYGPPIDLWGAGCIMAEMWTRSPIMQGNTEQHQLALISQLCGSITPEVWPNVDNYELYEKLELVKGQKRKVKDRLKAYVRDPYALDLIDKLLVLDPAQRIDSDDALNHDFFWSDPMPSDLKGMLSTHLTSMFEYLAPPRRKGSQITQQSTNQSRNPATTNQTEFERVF
In short: as §1

[5] = target: T5, panel of 60 human kinases (Homo sapiens, UniProt Q9UKE5); settings: TNIK; 0.1 μM; 10 μM ATP; read-out: % Enzyme Activity (relative to DSMO controls)
T5 construct: purchased Reaction Biology Corp
T5 sequence (Q9UKE5 whole entry): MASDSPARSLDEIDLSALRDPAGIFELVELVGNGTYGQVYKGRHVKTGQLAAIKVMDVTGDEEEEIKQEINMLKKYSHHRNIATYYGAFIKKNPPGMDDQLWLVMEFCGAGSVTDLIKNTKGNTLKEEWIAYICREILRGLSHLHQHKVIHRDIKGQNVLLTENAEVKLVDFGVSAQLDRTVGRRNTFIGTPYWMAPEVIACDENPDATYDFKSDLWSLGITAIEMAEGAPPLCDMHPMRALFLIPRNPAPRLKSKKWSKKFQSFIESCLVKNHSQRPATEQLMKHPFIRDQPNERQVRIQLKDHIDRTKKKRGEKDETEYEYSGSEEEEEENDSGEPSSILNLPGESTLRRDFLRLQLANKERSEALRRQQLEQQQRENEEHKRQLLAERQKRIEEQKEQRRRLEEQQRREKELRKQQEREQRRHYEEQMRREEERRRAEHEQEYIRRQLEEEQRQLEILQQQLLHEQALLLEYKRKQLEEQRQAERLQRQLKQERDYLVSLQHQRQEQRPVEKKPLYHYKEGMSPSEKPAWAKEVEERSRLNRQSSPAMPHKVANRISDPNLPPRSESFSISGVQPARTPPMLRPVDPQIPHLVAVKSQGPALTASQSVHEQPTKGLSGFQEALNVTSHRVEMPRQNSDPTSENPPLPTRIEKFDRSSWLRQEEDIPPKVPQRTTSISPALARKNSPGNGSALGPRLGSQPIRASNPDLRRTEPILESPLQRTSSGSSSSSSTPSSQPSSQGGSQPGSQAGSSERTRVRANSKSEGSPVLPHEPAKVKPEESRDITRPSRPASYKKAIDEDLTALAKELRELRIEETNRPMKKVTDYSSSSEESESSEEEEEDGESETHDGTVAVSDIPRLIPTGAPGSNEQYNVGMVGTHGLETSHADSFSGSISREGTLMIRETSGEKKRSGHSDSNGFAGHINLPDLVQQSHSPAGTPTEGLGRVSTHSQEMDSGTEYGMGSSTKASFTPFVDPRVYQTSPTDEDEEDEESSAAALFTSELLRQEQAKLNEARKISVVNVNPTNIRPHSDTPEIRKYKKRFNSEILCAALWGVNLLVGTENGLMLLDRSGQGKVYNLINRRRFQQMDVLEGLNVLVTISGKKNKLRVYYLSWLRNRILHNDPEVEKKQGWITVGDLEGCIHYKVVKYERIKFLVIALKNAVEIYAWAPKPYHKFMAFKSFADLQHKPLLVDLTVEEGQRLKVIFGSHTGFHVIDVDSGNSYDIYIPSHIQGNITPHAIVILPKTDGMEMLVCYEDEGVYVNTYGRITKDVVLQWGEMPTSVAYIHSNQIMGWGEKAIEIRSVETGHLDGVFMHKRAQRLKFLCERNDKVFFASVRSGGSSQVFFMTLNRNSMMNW
In short: as §1

[6] = target: T6, panel of 60 human kinases (Homo sapiens, UniProt O94921); settings: CDK14/cyclin Y (PFTK1); 0.1 μM; 10 μM ATP; read-out: % Enzyme Activity (relative to DSMO controls)
T6 construct: purchased Reaction Biology Corp
T6 sequence (O94921 whole entry): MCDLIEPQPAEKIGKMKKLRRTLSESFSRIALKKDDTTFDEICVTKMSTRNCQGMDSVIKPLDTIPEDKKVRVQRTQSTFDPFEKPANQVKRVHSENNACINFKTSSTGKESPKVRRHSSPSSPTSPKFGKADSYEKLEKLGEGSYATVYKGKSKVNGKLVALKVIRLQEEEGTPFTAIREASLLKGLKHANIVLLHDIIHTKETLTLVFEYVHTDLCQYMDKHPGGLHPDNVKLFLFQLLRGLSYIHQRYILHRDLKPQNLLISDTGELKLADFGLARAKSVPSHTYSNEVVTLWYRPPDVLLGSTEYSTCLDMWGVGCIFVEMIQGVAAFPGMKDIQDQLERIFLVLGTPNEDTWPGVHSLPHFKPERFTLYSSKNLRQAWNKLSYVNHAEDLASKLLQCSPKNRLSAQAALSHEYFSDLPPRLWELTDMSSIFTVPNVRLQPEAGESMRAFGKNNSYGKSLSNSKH
In short: as §1

[7] = target: T7, panel of 60 human kinases (Homo sapiens, UniProt Q9UQB9); settings: Aurora C; 0.1 μM; 10 μM ATP; read-out: % Enzyme Activity (relative to DSMO controls)
T7 construct: purchased Reaction Biology Corp
T7 sequence (Q9UQB9 1-309): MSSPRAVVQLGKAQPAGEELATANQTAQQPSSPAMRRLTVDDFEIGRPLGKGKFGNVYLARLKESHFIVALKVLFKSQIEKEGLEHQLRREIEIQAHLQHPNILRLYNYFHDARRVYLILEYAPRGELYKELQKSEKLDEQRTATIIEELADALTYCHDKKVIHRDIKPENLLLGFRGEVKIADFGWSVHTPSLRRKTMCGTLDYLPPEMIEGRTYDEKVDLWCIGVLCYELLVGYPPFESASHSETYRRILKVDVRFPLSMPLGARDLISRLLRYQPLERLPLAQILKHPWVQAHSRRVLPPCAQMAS
In short: as §1

[8] = target: T8, panel of 60 human kinases (Homo sapiens, UniProt Q92918); settings: HPK1/MAP4K1; 0.1 μM; 10 μM ATP; read-out: % Enzyme Activity (relative to DSMO controls)
T8 construct: purchased Reaction Biology Corp
In short: as §1

[9] = target: T9, panel of 60 human kinases (Homo sapiens, UniProt O95819); settings: HGK/MAP4K4; 0.1 μM; 10 μM ATP; read-out: % Enzyme Activity (relative to DSMO controls)
T9 construct: purchased Reaction Biology Corp
T9 sequence (O95819 whole entry): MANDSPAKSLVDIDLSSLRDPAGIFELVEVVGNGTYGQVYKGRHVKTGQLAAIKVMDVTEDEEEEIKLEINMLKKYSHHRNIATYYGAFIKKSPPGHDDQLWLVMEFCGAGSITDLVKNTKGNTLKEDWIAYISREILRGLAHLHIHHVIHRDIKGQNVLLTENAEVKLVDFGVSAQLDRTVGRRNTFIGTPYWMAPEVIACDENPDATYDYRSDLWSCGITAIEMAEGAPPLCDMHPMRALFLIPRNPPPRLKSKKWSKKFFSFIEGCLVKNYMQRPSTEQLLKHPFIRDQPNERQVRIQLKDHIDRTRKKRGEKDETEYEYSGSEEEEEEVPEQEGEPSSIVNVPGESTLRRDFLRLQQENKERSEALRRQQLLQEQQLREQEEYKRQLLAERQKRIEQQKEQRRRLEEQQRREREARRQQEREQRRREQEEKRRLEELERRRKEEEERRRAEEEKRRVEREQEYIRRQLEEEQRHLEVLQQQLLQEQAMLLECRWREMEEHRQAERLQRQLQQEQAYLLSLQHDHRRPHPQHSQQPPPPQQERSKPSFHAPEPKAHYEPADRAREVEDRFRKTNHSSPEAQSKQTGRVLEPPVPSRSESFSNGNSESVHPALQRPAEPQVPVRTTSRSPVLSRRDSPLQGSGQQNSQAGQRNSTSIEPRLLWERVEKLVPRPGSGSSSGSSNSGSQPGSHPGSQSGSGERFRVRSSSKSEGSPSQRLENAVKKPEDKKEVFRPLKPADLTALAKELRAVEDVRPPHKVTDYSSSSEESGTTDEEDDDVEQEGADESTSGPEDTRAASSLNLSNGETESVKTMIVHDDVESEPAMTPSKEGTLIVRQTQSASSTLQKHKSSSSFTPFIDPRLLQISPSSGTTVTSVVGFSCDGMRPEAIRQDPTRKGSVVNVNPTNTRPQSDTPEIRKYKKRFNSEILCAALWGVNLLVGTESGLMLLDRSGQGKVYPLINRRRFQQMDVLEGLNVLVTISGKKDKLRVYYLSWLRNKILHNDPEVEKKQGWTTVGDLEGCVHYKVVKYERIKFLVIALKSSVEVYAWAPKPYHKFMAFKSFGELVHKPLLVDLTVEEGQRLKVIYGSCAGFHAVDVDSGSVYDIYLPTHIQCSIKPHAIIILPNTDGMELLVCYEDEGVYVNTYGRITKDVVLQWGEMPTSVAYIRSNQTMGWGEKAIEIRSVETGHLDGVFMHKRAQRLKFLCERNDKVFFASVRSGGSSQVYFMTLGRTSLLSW
In short: as §1

[10] = target: T10, panel of 60 human kinases (Homo sapiens, UniProt P24941); settings: 0.1 μM, 10 μM ATP, read-out: % Enzyme Activity (relative to DSMO controls)
T10 construct: purchased Reaction Biology Corp
In short: as §1

[11] = target: T11, panel of 60 human kinases (Homo sapiens, UniProt Q9UM73); settings: ALK; 0.1 μM; 10 μM ATP; read-out: % Enzyme Activity (relative to DSMO controls)
T11 construct: purchased Reaction Biology Corp
In short: as §1

[12] = target: T12, panel of 60 human kinases (Homo sapiens, UniProt Q96GD4); settings: Aurora B; 0.1 μM; 10 μM ATP; read-out: % Enzyme Activity (relative to DSMO controls)
T12 construct: purchased Reaction Biology Corp
T12 sequence (Q96GD4 whole entry): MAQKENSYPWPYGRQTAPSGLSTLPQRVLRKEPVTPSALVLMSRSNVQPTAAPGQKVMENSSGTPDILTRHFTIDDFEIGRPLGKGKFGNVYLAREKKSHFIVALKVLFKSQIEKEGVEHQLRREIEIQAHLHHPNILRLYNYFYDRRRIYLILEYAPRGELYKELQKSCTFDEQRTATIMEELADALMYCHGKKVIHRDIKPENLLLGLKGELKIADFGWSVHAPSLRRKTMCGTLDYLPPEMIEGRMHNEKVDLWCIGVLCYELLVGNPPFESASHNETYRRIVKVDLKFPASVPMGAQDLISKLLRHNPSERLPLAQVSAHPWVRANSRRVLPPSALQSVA
In short: as §1

## CN1CCN(Cc2ccc(-c3cnc4[nH]cc(-c5ccc6[nH]ccc6c5)c4c3)cc2)CC1 [Compound 1, 3-(1H-Indol-5-yl)-5-(4-((4-methylpiperazin-1-yl)methyl)phenyl)-1H-pyrrolo[2,3-b]pyridine, reference compound]
[1]; CDK4/cyclin D1
  remaining activity at 0.1 µM: 51%
[1]; CDK4/cyclin D3
  remaining activity at 0.1 µM: 49.1%
[2]
  remaining activity at 0.1 µM: 43.5%
[3]
  remaining activity at 0.1 µM: 16.1%
[4]; CDK9/cyclin K
  remaining activity at 0.1 µM: 102%
[4]; CDK9/cyclin T1
  remaining activity at 0.1 µM: 96.6%
[4]; CDK9/cyclin T2
  remaining activity at 0.1 µM: 98.1%
[5]
  remaining activity at 0.1 µM: 3%
[6]
  remaining activity at 0.1 µM: 88.2%
[7]
  remaining activity at 0.1 µM: 82.8%
[8]
  remaining activity at 0.1 µM: 24%
[9]
  remaining activity at 0.1 µM: 1.96%
[10]; CDK2/cyclin A1
  remaining activity at 0.1 µM: 83.6%
[10]; CDK2/cyclin A
  remaining activity at 0.1 µM: 83.7%
[10]; CDK2/cyclin E
  remaining activity at 0.1 µM: 97.9%
[10]; CDK2/cyclin O
  remaining activity at 0.1 µM: 72.5%
[11]
  remaining activity at 0.1 µM: 25.4%
[12]
  remaining activity at 0.1 µM: 88.8%

## CN1CCN(Cc2ccc(-c3cnc4[nH]cc(-c5cccc(Cl)c5)c4c3)cc2)CC1 [Compound 7ad, 3-(3-Chlorophenyl)-5-(4-((4-methylpiperazin-1-yl)methyl)phenyl)-1H-pyrrolo[2,3-b]pyridine]
[1]; CDK4/cyclin D1
  remaining activity at 0.1 µM: 70.9%
[1]; CDK4/cyclin D3
  remaining activity at 0.1 µM: 58.1%
[2]
  remaining activity at 0.1 µM: 70.1%
[3]
  remaining activity at 0.1 µM: 17.5%
[4]; CDK9/cyclin K
  remaining activity at 0.1 µM: 99.7%
[4]; CDK9/cyclin T1
  remaining activity at 0.1 µM: 78%
[4]; CDK9/cyclin T2
  remaining activity at 0.1 µM: 95.2%
[5]
  remaining activity at 0.1 µM: 0.68%
[6]
  remaining activity at 0.1 µM: 92.5%
[7]
  remaining activity at 0.1 µM: 104%
[8]
  remaining activity at 0.1 µM: 62.5%
[9]
  remaining activity at 0.1 µM: 1.36%
[10]; CDK2/cyclin A1
  remaining activity at 0.1 µM: 97%
[10]; CDK2/cyclin A
  remaining activity at 0.1 µM: 87.4%
[10]; CDK2/cyclin E
  remaining activity at 0.1 µM: 96.2%
[10]; CDK2/cyclin O
  remaining activity at 0.1 µM: 75.1%
[11]
  remaining activity at 0.1 µM: 108%
[12]
  remaining activity at 0.1 µM: 91.8%

## CN1CCN(Cc2ccc(-c3cnc4[nH]cc(-c5cnn(Cc6ccccc6)c5)c4c3)cc2)CC1 [Compound 7ah, 3-(1-Benzyl-1H-pyrazol-4-yl)-5-(4-((4-methylpiperazin-1-yl)methyl)phenyl)-1H-pyrrolo[2,3-b]pyridine]
[1]; CDK4/cyclin D1
  remaining activity at 0.1 µM: 25.9%
[1]; CDK4/cyclin D3
  remaining activity at 0.1 µM: 26%
[2]
  remaining activity at 0.1 µM: 76.6%
[3]
  remaining activity at 0.1 µM: 7.09%
[4]; CDK9/cyclin K
  remaining activity at 0.1 µM: 93.3%
[4]; CDK9/cyclin T1
  remaining activity at 0.1 µM: 57.8%
[4]; CDK9/cyclin T2
  remaining activity at 0.1 µM: 82.7%
[5]
  remaining activity at 0.1 µM: 0.96%
[6]
  remaining activity at 0.1 µM: 30.1%
[7]
  remaining activity at 0.1 µM: 78.5%
[8]
  remaining activity at 0.1 µM: 17.8%
[9]
  remaining activity at 0.1 µM: 5.18%
[10]; CDK2/cyclin A1
  remaining activity at 0.1 µM: 30.7%
[10]; CDK2/cyclin A
  remaining activity at 0.1 µM: 44.2%
[10]; CDK2/cyclin E
  remaining activity at 0.1 µM: 48.9%
[10]; CDK2/cyclin O
  remaining activity at 0.1 µM: 19.2%
[11]
  remaining activity at 0.1 µM: 28.8%
[12]
  remaining activity at 0.1 µM: 69.9%

## Cc1nn(C)c(C)c1-c1c[nH]c2ncc(-c3ccc(CN4CCN(C)CC4)cc3)cc12 [Compound 7ai, 5-(4-((4-Methylpiperazin-1-yl)methyl)phenyl)-3-(1,3,5-trimethyl-1H-pyrazol-4-yl)-1H-pyrrolo[2,3-b]pyridine]
[1]; CDK4/cyclin D1
  remaining activity at 0.1 µM: 65.9%
[1]; CDK4/cyclin D3
  remaining activity at 0.1 µM: 65.4%
[2]
  remaining activity at 0.1 µM: 82%
[3]
  remaining activity at 0.1 µM: 19.2%
[4]; CDK9/cyclin K
  remaining activity at 0.1 µM: 99.7%
[4]; CDK9/cyclin T1
  remaining activity at 0.1 µM: 85.8%
[4]; CDK9/cyclin T2
  remaining activity at 0.1 µM: 84.8%
[5]
  remaining activity at 0.1 µM: 1.35%
[6]
  remaining activity at 0.1 µM: 83.9%
[7]
  remaining activity at 0.1 µM: 122%
[8]
  remaining activity at 0.1 µM: 67.8%
[9]
  remaining activity at 0.1 µM: 9.15%
[10]; CDK2/cyclin A1
  remaining activity at 0.1 µM: 87.8%
[10]; CDK2/cyclin A
  remaining activity at 0.1 µM: 90.9%
[10]; CDK2/cyclin E
  remaining activity at 0.1 µM: 94.8%
[10]; CDK2/cyclin O
  remaining activity at 0.1 µM: 77.9%
[11]
  remaining activity at 0.1 µM: 76.2%
[12]
  remaining activity at 0.1 µM: 99%

## CN1CCN(Cc2ccc(-c3cnc4[nH]cc(-c5ccccc5Cl)c4c3)cc2)CC1 [Compound 7as, 3-(2-Chlorophenyl)-5-(4-((4-methylpiperazin-1-yl)methyl)phenyl)-1H-pyrrolo[2,3-b]pyridine]
[1]; CDK4/cyclin D1
  remaining activity at 0.1 µM: 31.9%
[1]; CDK4/cyclin D3
  remaining activity at 0.1 µM: 39.7%
[2]
  remaining activity at 0.1 µM: 42.3%
[3]
  remaining activity at 0.1 µM: 18.8%
[4]; CDK9/cyclin K
  remaining activity at 0.1 µM: 96.6%
[4]; CDK9/cyclin T1
  remaining activity at 0.1 µM: 82.3%
[4]; CDK9/cyclin T2
  remaining activity at 0.1 µM: 74.2%
[5]
  remaining activity at 0.1 µM: 0.51%
[6]
  remaining activity at 0.1 µM: 85%
[7]
  remaining activity at 0.1 µM: 94.2%
[8]
  remaining activity at 0.1 µM: 19.5%
[9]
  remaining activity at 0.1 µM: -0.5%
[10]; CDK2/cyclin A1
  remaining activity at 0.1 µM: 65%
[10]; CDK2/cyclin A
  remaining activity at 0.1 µM: 69.5%
[10]; CDK2/cyclin E
  remaining activity at 0.1 µM: 88.5%
[10]; CDK2/cyclin O
  remaining activity at 0.1 µM: 51.2%
[11]
  remaining activity at 0.1 µM: 70.5%
[12]
  remaining activity at 0.1 µM: 82.5%

## COc1ccccc1-c1c[nH]c2ncc(-c3ccc(CN4CCN(C)CC4)cc3)cc12 [Compound 7at, 3-(2-Methoxyphenyl)-5-(4-((4-methylpiperazin-1-yl)methyl)phenyl)-1H-pyrrolo[2,3-b]pyridine]
[1]; CDK4/cyclin D1
  remaining activity at 0.1 µM: 14.1%
[1]; CDK4/cyclin D3
  remaining activity at 0.1 µM: 24.4%
[2]
  remaining activity at 0.1 µM: 82.1%
[3]
  remaining activity at 0.1 µM: 50.2%
[4]; CDK9/cyclin K
  remaining activity at 0.1 µM: 79.5%
[4]; CDK9/cyclin T1
  remaining activity at 0.1 µM: 46.3%
[4]; CDK9/cyclin T2
  remaining activity at 0.1 µM: 37.4%
[5]
  remaining activity at 0.1 µM: 2.2%
[6]
  remaining activity at 0.1 µM: 76.4%
[7]
  remaining activity at 0.1 µM: 107%
[8]
  remaining activity at 0.1 µM: 55.6%
[9]
  remaining activity at 0.1 µM: 9.52%
[10]; CDK2/cyclin A1
  remaining activity at 0.1 µM: 58.8%
[10]; CDK2/cyclin A
  remaining activity at 0.1 µM: 56.1%
[10]; CDK2/cyclin E
  remaining activity at 0.1 µM: 80.6%
[10]; CDK2/cyclin O
  remaining activity at 0.1 µM: 29.6%
[11]
  remaining activity at 0.1 µM: 77.8%
[12]
  remaining activity at 0.1 µM: 87.8%
